# Reference: US9725445B2, “Cycloalkyl nitrile pyrazolo pyridones as Janus kinase inhibitors” (Merck Sharp & Dohme Corp., priority 2013, dated 2017)
# Assays:
# JAK1 = JAK1 (Homo sapiens (Human), UniProt P23458); test: Jak biochemical HTRF assay, JAK1; conditions: HTRF biochemical assay, recombinant GST-tagged catalytic domain; read-out: JAK1 IC50
# JAK2 = JAK2 (Homo sapiens (Human), UniProt O60674); test: Jak biochemical HTRF assay, JAK2; conditions: HTRF biochemical assay, recombinant GST-tagged catalytic domain; read-out: JAK2 IC50
# Sequence of JAK2 (O60674 849-1124): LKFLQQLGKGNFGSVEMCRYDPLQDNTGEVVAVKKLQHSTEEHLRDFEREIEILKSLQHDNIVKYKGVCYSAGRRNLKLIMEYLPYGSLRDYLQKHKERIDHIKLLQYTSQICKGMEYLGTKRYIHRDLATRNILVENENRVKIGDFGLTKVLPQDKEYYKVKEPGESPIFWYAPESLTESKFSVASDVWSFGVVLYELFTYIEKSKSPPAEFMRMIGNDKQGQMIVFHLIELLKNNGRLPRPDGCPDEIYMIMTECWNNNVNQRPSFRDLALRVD
# Sequence of JAK1 (P23458 875-1153): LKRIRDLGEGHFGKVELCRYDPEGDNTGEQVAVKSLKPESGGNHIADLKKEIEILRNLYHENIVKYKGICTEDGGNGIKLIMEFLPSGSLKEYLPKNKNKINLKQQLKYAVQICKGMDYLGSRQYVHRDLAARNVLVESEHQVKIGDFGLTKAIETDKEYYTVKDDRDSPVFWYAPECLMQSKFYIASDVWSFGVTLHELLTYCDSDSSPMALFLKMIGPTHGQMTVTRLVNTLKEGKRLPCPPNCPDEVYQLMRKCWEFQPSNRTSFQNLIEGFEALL
SMILES,IC50 (JAK1) [nM],IC50 (JAK2) [nM]
"CC(C)(C)OC(=O)NCc1cc(F)cc(Nc2nn([C@H]3CCCC[C@@H]3C#N)c3cc[nH]c(=O)c23)c1 [Example 3-36, tert-butyl [3-({1-[(1S,25)-2-cyanocyclohexyl]-4-oxo-4,5-dihydro-1H-pyrazolo[4,3-c]pyridin-3-yl}amino)-5-fluorobenzyl]carbamate]",2.3,3.8
"CC1(C)C(=O)c2cc(Nc3nn([C@H]4CCCC[C@@H]4C#N)c4cc[nH]c(=O)c34)ccc2S1(=O)=O [Example 3-171, (1S,2S)-2-{3-[(2,2-dimethyl-1,1-dioxido-3-oxo-2,3-dihydro-1-benzothiophen-5-yl)amino]-4-oxo-4,5-dihydro-1H-pyrazolo[4,3-c]pyridin-1-yl}cyclohexanecarbonitrile]",1.16,5.5
"N#C[C@H]1CCC[C@@H]1n1nc(Nc2ccc(C(N)C(F)(F)F)cc2)c2c(=O)[nH]ccc21 (single isomer, unassigned) [Example 3-136, (1S,2S)-2-[3-({4-[(1R or 1S)-1-amino-2,2,2-trifluoroethyl]phenyl}amino)-4-oxo-4,5-dihydro-1H-pyrazolo[4,3-c]pyridin-1-yl]cyclopentanecarbonitrile]",0.28,0.7
"COCCC(C)(C)N1Cc2cc(Nc3nn([C@H]4CCCC[C@@H]4C#N)c4cc[nH]c(=O)c34)ccc2S1(=O)=O [Example 3-161, (1S,2S)-2-(3-{[2-(3-methoxy-1,1-dimethylpropyl)-1,1-dioxido-2,3-dihydro-1,2-benzisothiazol-5-yl]amino}-4-oxo-4,5-dihydro-1H-pyrazolo[4,3-c]pyridin-1-yl)cyclohexanecarbonitrile]",0.067,0.15
"CC1(N2Cc3cc(Nc4nn([C@H]5CCCC[C@@H]5C#N)c5cc[nH]c(=O)c45)ccc3S2(=O)=O)CCOCC1 [Example 15-64, (1S,2S)-2-(3-{[2-(4-methyltetrahydro-2H-pyran-4-yl)-1,1-dioxido-2,3-dihydro-1,2-benzisothiazol-5-yl]amino}-4-oxo-4,5-dihydro-1H-pyrazolo[4,3-c]pyridin-1-yl)cyclohexanecarbonitrile]",0.069,0.17
"N#CCCn1cc(-c2ccc(Nc3nn([C@H]4CCCC[C@@H]4C#N)c4cc[nH]c(=O)c34)cc2)cn1 [Example 15-14, (1S,2S)-2-[3-({4-[1-(2-cyanoethyl)-1H-pyrazol-4-yl]phenyl}amino)-4-oxo-4,5-dihydro-1H-pyrazolo[4,3-c]pyridin-1-yl]cyclohexanecarbonitrile]",0.065,1.1
"N#C[C@H]1CCCC[C@@H]1n1nc(Nc2cccc(Cn3cnnc3)c2)c2c(=O)[nH]ccc21 [Example 3-51, (1S,2S)-2-(4-oxo-3-{[3-(4H-1,2,4-triazol-4-ylmethyl)phenyl]amino}-4,5-dihydro-1H-pyrazolo[4,3-c]pyridin-1-yl)cyclohexanecarbonitrile]",0.25,1.2
"CS(=O)(=O)c1ccc(Nc2nn([C@H]3CCCC[C@@H]3C#N)c3cc[nH]c(=O)c23)cc1 [Example 3-5, (1S,2S)-2-(3-{[4-(methylsulfonyl)phenyl]amino}-4-oxo-4,5-dihydro-1H-pyrazolo[4,3-c]pyridin-1-yl)cyclohexanecarbonitrile]",0.12,0.83
"CC1(C)Cc2cc(Nc3nn([C@H]4CCCC[C@@H]4C#N)c4cc[nH]c(=O)c34)ccc2S1(=O)=O [Example 21-1, (1S,2S)-2-(3-((2,2-Dimethyl-1,1-dioxido-2,3-dihydrobenzo[b]thiophen-5-yl)amino)-4-oxo-4,5-dihydro-1H-pyrazolo[4,3-c]pyridin-1-yl)cyclohexanecarbonitrile]",0.056,0.28
"N#C[C@H]1C[C@H](O)CC[C@@H]1n1nc(Nc2ccc(Cl)cc2)c2c(=O)[nH]ccc21 [Example 3-90, (1S,2S,5R)-2-(3-((4-chlorophenyl)amino)-4-oxo-4,5-dihydro-1H-pyrazolo[4,3-c]pyridin-1-yl)-5-hydroxycyclohexanecarbonitrile]",0.28,7.3
